≈ marks a conversion by molar mass, not a printed value.
Columns and labels:
biofilm formation = settings: study by Losick and co-workers (Kolodkin-Gal et al., Cell 149 (2012)); cited from earlier work
L-929 cells (ATCC CCL-1) = test: Minimal Essential Media (MEM) Elution cytotoxicity test; assay type: cell-based; settings: Table 9A
In short: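 L-929 cells (ATCC CCL-1) were seeded in multiwell plates and grown to roughly 80% confluence. Test article dilutions (1:2, 1:4, 1:8, 1:16) and control extracts were applied in triplicate and incubated 48±3 hours at 37±1° C. in 5±1% CO2. Wells were scored microscopically for morphological cytotoxicity on a 0–4 scale and averaged; Pass required grade not greater than 2 per USP <87>.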

biofilms of MRSA = settings: understanding of the inventors; no own test described; cited from earlier work
P. aeruginosa = test: MIC, 96-well CAMHB, 10^5 to 10^2 CFU/mL in 24 hours; assay type: cell-based, Pseudomonas aeruginosa; settings: Pseudomonas aeruginosa; Table 3A c2; read-out: MICs (μg/mL): P. aeruginosa
In short: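 Broth microdilution in CAMHB with about 5×10^5 CFU/mL inoculum, incubated 24 h at 37 °C with graded polyamine compound concentrations. Surviving CFU/mL determined by plating each well on TSA for 24 h at 37 °C; n=8 per concentration.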

P. aeruginosa biofilms [1] = test: MBEC, MBEC Inoculation Tray (Innovotech), to 10^2 CFU/peg in 24 hours; assay type: cell-based; settings: Pseudomonas aeruginosa; Table 3A c5; group head missing, probably MBEC; read-out: MICs (μg/mL): P. aeruginosa (second P. aeruginosa)
Source text: To determine the MBEC of each polyamine compound, the MBEC Inoculation Tray by Innovotech, formerly known as the Calgary biofilm device, was used. Within this device, biofilms grow on the surface of polystyrene pegs, 96 of which are attached to a lid. These pegs are inserted into a flat bottom 96-well plate. In this instance, the MBEC of a molecule was defined as the concentration of compound (in μg/mL) required to reduce 10^5 or 10^6 CFU/peg (biofilm levels varied by isolate) to 10^2 CFU/peg in a 24-hour period.
Following the manufacturer's guidelines, biofilms were grown on the surface of each peg by first making a 0.5 McFarland of each isolate. The 0.5 McFarland was diluted 1:100 in CAMHB. Into each well of a flat bottom 96-well plate, 150 μL of broth were pipetted. The plate was shaken at 100 rpm for 24 hours (P. aeruginosa and A. baumannii) or 48 hours (MRSA). The pegs were then placed into a separate flat bottom 96-well plate for 10 seconds with 200 μL of phosphate buffered saline (PBS) in each well to remove nonadherent cells. The lid was then placed into a 96-well plate that contained varying concentrations of antimicrobial with 200 μL per well. The plate was incubated for 24 hours at 37° C. after which time 100 μL of broth were plated on TSA. TSA plates were incubated 24 hours at 37° C. and the number of CFU counted to calculate the CFU/peg. […]

P. aeruginosa biofilms [2] = test: EBEC, high number biofilms on PEEK membranes, 10^9 to 10^2 CFU/PEEK membrane in 24 hours; assay type: cell-based; settings: Pseudomonas aeruginosa; Table 3B c3; group head missing; read-out: MICs (μg/mL) II: P. aeruginosa
Description: In addition to determining the MIC and the MBEC of polyamine compounds against planktonic bacteria and low number biofilms, our group wanted to determine the efficacy of polyamine compounds against high number biofilms. To do so, biofilms were grown on the surface of polyetheretherketone (PEEK) membranes using a membrane biofilm reactor. This reactor is similar to the CDC biofilm reactor, but rather than growing biofilms on coupon surfaces, the reactor was modified to hold PEEK membranes. In short, to grow biofilms within this system, 500 mL of brain heart infusion (BHI) broth were inoculated with 1 mL of a 0.5 McFarland. The reactor was placed on a hot plate set at 34° C. and the bacteria were grown under batch conditions for 24 hours. Following this protocol, biofilms typically grow to 10^9 CFU/PEEK membrane. […] A solution of 10% BHI was then flowed through the reactor at a rate of 6.94 mL/min for an additional 24 hours. PEEK membranes were then removed and placed into 2 mL of CAMHB that contained a desired concentration of polyamine compound or antibiotic. The EBEC was defined as the concentration of antimicrobial required to reduce a biofilm from approximately 10^9 CFU/PEEK membrane to approximately 10^2 CFU/PEEK membrane in a 24-hour period.

## NCCCCNCCCN [spermidine]
Biofilm formation
  concentration at which active (biofilm formation): ~1 mM

## O=CCCCC=O [glutaraldehyde, Glutaraldehyde, reference compound]
L-929 cells (ATCC CCL-1); 3.125 μg/mL
  Results Pass/Fail: Pass (receives a passing score (Pass) if the reactivity grade is not greater than grade 2 or a mild reactivity)
L-929 cells (ATCC CCL-1); 6.25 μg/mL
  Results Pass/Fail: Fail (a numerical grade greater than 2 is considered a cytotoxic effect, or a failing score (Fail))
L-929 cells (ATCC CCL-1); 12.5 μg/mL
  Results Pass/Fail: Fail (a numerical grade greater than 2 is considered a cytotoxic effect, or a failing score (Fail))
L-929 cells (ATCC CCL-1); 25 μg/mL
  Results Pass/Fail: Fail (a numerical grade greater than 2 is considered a cytotoxic effect, or a failing score (Fail))
L-929 cells (ATCC CCL-1); 1.563 (unit not given)
  Results Pass/Fail: Pass (receives a passing score (Pass) if the reactivity grade is not greater than grade 2 or a mild reactivity)
Biofilms of MRSA
  biofilm dispersal effect (comparison): not seen

## N=C(NCCCCCCNC(=N)NC(=N)Nc1ccc(Cl)cc1)NC(=N)Nc1ccc(Cl)cc1.O=C(O)[C@H](O)[C@@H](O)[C@H](O)[C@H](O)CO.O=C(O)[C@H](O)[C@@H](O)[C@H](O)[C@H](O)CO [chlorhexidine gluconate, reference compound]
L-929 cells (ATCC CCL-1); 3.125 μg/mL
  Results Pass/Fail: Pass (receives a passing score (Pass) if the reactivity grade is not greater than grade 2 or a mild reactivity)
L-929 cells (ATCC CCL-1); 6.25 μg/mL
  Results Pass/Fail: Pass (receives a passing score (Pass) if the reactivity grade is not greater than grade 2 or a mild reactivity)
L-929 cells (ATCC CCL-1); 12.5 μg/mL
  Results Pass/Fail: Pass (receives a passing score (Pass) if the reactivity grade is not greater than grade 2 or a mild reactivity)
L-929 cells (ATCC CCL-1); 25 μg/mL
  Results Pass/Fail: Fail (a numerical grade greater than 2 is considered a cytotoxic effect, or a failing score (Fail))
L-929 cells (ATCC CCL-1); 1.563 (unit not given)
  Results Pass/Fail: Pass (receives a passing score (Pass) if the reactivity grade is not greater than grade 2 or a mild reactivity)
Biofilms of MRSA
  biofilm dispersal effect (comparison): not seen

## NC[C@H]1O[C@H](O[C@H]2[C@H](O)[C@@H](O[C@H]3O[C@H](CO)[C@@H](O)[C@H](N)[C@H]3O)[C@H](N)C[C@@H]2N)[C@H](N)C[C@@H]1O [Tobramycin, tobramycin, reference compound]
P. aeruginosa
  MIC: 2 µg/mL (≈ 4.28 µM)
P. aeruginosa biofilms [1]
  MIC: 100 µg/mL (≈ 214 µM)
P. aeruginosa biofilms [2]
  MIC: 2000 µg/mL (≈ 4280 µM)

## NCCCNCCCN [norspermidine, N-(3-aminopropyl)propane-1,3-diamine]
Biofilm formation
  concentration inhibiting biofilm formation: 25 µM
